Test results: ChEMBL document CHEMBL1201862, “PubChem BioAssay data set” (2004)
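All cell lines were grown in 96-well plates and treated with compound for 48 hours. GI50 is the concentration that inhibits growth by half.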 Active and inactive are the calls of the source. Cut-off read from the data, not from the text of the source: active = GI50 up to about 1.1 µM and inactive = higher.

What was measured:
Assay in all cases: NCI anticancer screen, dose series, 48 h
U-251 = tested on: U-251
SF-268 = tested on: SF-268
COLO 205 = tested on: COLO 205
SNB-19 = tested on: SNB-19
OVCAR-3 = tested on: OVCAR-3
Malme-3M = tested on: Malme-3M
A549 = tested on: A549
MDA-MB-231 = tested on: MDA-MB-231
SK-MEL-5 = tested on: SK-MEL-5
SNB-75 = tested on: SNB-75
KM12 = tested on: KM12
OVCAR-5 = tested on: OVCAR-5
BT-549 = tested on: BT-549
SR = tested on: SR
CCRF-CEM = tested on: CCRF-CEM
UACC-257 = tested on: UACC-257
HCT-116 = tested on: HCT-116
TK-10 = tested on: TK-10
HT-29 = tested on: HT-29
M19-MEL = tested on: M19-MEL

## Cc1ccc(SC2=C(N(C)C)C(=O)c3ccccc3C2=O)cc1
U-251
  GI50: 8.05 µM (inactive)
SF-268
  GI50: 4.76 µM (inactive)
COLO 205
  GI50: 20.8 µM (inactive)
SNB-19
  GI50: 12.3 µM (inactive)
OVCAR-3
  GI50: 0.661 µM (active)
Malme-3M
  GI50: 4.83 µM (inactive)
A549
  GI50: 12.6 µM (inactive)
MDA-MB-231
  GI50: 4.24 µM (inactive)
SK-MEL-5
  GI50: 2.31 µM (inactive)
SNB-75
  GI50: 12.1 µM (inactive)
KM12
  GI50: 3.06 µM (inactive)
OVCAR-5
  GI50: 12.9 µM (inactive)
BT-549
  GI50: 6.43 µM (inactive)
SR
  GI50: 0.631 µM (active)
CCRF-CEM
  GI50: 1.55 µM (inactive)
UACC-257
  GI50: 1.91 µM (inactive)
HCT-116
  GI50: 1.1 µM (active)
TK-10
  GI50: 7.43 µM (inactive)
HT-29
  GI50: 6.27 µM (inactive)

## COc1ccc2c3c(c(C(=O)c4ccccc4)oc13)CCC2
U-251
  GI50: > 100 µM (inactive)
COLO 205
  GI50: > 100 µM (inactive)
SNB-19
  GI50: > 100 µM (inactive)
OVCAR-3
  GI50: > 100 µM (inactive)
A549
  GI50: > 100 µM (inactive)
SK-MEL-5
  GI50: > 100 µM (inactive)
SNB-75
  GI50: 81.5 µM (inactive)
CCRF-CEM
  GI50: > 100 µM (inactive)
UACC-257
  GI50: > 100 µM (inactive)
HCT-116
  GI50: > 100 µM (inactive)
TK-10
  GI50: > 100 µM (inactive)
M19-MEL
  GI50: > 100 µM (inactive)
HT-29
  GI50: 79.4 µM (inactive)

## COc1ccc2c(c1)c1nn(CCN3CCCCC3)c3ccc4c(=O)n(CCN(C)C)c(=O)n2c4c13
U-251
  GI50: < 0.01 µM (active)
SF-268
  GI50: < 0.01 µM (active)
COLO 205
  GI50: 0.148 µM (active)
SNB-19
  GI50: < 0.0138 µM (active)
OVCAR-3
  GI50: 0.0151 µM (active)
Malme-3M
  GI50: 0.0619 µM (active)
A549
  GI50: < 0.01 µM (active)
MDA-MB-231
  GI50: < 0.0119 µM (active)
SK-MEL-5
  GI50: 0.0406 µM (active)
SNB-75
  GI50: < 0.01 µM (active)
KM12
  GI50: < 0.01 µM (active)
OVCAR-5
  GI50: < 0.0105 µM (active)
BT-549
  GI50: 0.245 µM (active)
SR
  GI50: < 0.01 µM (active)
CCRF-CEM
  GI50: < 0.01 µM (active)
UACC-257
  GI50: 0.244 µM (active)
HCT-116
  GI50: < 0.01 µM (active)
TK-10
  GI50: 0.029 µM (active)
HT-29
  GI50: < 0.01 µM (active)

## CC(C)=CC(O)C/C(C)=C/CC/C(C)=C/CCC1(C)C(CCCO)/C(=C(/C)C=O)CCC1(C)O (stereo not given)
U-251
  GI50: 34 µM (inactive)
SF-268
  GI50: 40.5 µM (inactive)
COLO 205
  GI50: 32.7 µM (inactive)
SNB-19
  GI50: 97.7 µM (inactive)
OVCAR-3
  GI50: 86.1 µM (inactive)
Malme-3M
  GI50: 34 µM (inactive)
A549
  GI50: 28.4 µM (inactive)
MDA-MB-231
  GI50: 24.7 µM (inactive)
SK-MEL-5
  GI50: 43.9 µM (inactive)
SNB-75
  GI50: > 100 µM (inactive)
KM12
  GI50: 22.2 µM (inactive)
OVCAR-5
  GI50: > 100 µM (inactive)
BT-549
  GI50: 40.6 µM (inactive)
SR
  GI50: 37 µM (inactive)
CCRF-CEM
  GI50: 30.5 µM (inactive)
UACC-257
  GI50: 31.5 µM (inactive)
HCT-116
  GI50: 40 µM (inactive)
TK-10
  GI50: 30.3 µM (inactive)
HT-29
  GI50: 26.1 µM (inactive)

## CN(CCCNC(=O)c1cc(-c2ccccc2)nc2ccccc12)CCCNC(=O)c1cc(-c2ccccc2)nc2ccccc12
U-251
  GI50: 2.04 µM (inactive)
SF-268
  GI50: 5.32 µM (inactive)
COLO 205
  GI50: 1.79 µM (inactive)
SNB-19
  GI50: 5.97 µM (inactive)
OVCAR-3
  GI50: 3.27 µM (inactive)
Malme-3M
  GI50: 1.94 µM (inactive)
A549
  GI50: 3.96 µM (inactive)
MDA-MB-231
  GI50: 2.44 µM (inactive)
SK-MEL-5
  GI50: 1.66 µM (inactive)
SNB-75
  GI50: 2.33 µM (inactive)
KM12
  GI50: 2.02 µM (inactive)
OVCAR-5
  GI50: 2.28 µM (inactive)
BT-549
  GI50: 12.9 µM (inactive)
SR
  GI50: 3.36 µM (inactive)
CCRF-CEM
  GI50: 3.73 µM (inactive)
UACC-257
  GI50: 1.78 µM (inactive)
HCT-116
  GI50: 1.79 µM (inactive)
TK-10
  GI50: 4.45 µM (inactive)
HT-29
  GI50: 2 µM (inactive)

## COC1/C=C/C(C)C(O)CC(O)/C=C/C(C)C(C(C)C(OC)C(C)CCC(=O)C(C)C(C/C=C/N(C)C=O)OC)OC(=O)/C=C/C=C(\C)CC(OC)CC2=CC(=O)O[C@@H](C(C)C(OC)C1)[C@H]2O (stereo not given in full)
U-251
  GI50: < 0.005 µM (active)
SF-268
  GI50: 0.0233 µM (active)
COLO 205
  GI50: 0.00513 µM (active)
SNB-19
  GI50: 0.0168 µM (active)
OVCAR-3
  GI50: < 0.005 µM (active)
Malme-3M
  GI50: < 0.005 µM (active)
A549
  GI50: 0.00507 µM (active)
MDA-MB-231
  GI50: < 0.005 µM (active)
SK-MEL-5
  GI50: < 0.005 µM (active)
SNB-75
  GI50: < 0.005 µM (active)
KM12
  GI50: < 0.005 µM (active)
OVCAR-5
  GI50: 0.0103 µM (active)
BT-549
  GI50: 0.0311 µM (active)
SR
  GI50: 0.00736 µM (active)
CCRF-CEM
  GI50: 0.00687 µM (active)
UACC-257
  GI50: 0.0103 µM (active)
HCT-116
  GI50: < 0.005 µM (active)
TK-10
  GI50: 0.00542 µM (active)
HT-29
  GI50: < 0.005 µM (active)

## Cc1ccc(C)c2c1CCc1cc3ccccc3nc1-2
U-251
  GI50: > 100 µM (inactive)
SF-268
  GI50: > 100 µM (inactive)
COLO 205
  GI50: > 100 µM (inactive)
SNB-19
  GI50: > 100 µM (inactive)
OVCAR-3
  GI50: > 100 µM (inactive)
Malme-3M
  GI50: > 100 µM (inactive)
A549
  GI50: > 100 µM (inactive)
SK-MEL-5
  GI50: > 100 µM (inactive)
SNB-75
  GI50: 98.6 µM (inactive)
KM12
  GI50: > 100 µM (inactive)
OVCAR-5
  GI50: > 100 µM (inactive)
CCRF-CEM
  GI50: > 100 µM (inactive)
UACC-257
  GI50: > 100 µM (inactive)
HCT-116
  GI50: > 100 µM (inactive)
TK-10
  GI50: > 100 µM (inactive)
M19-MEL
  GI50: > 100 µM (inactive)
HT-29
  GI50: > 100 µM (inactive)
